System: 475296-252-R-J1-PDC spheroid viability
Test: Anticancer human tumor 475296-252-R-J1-PDC patient-derived rectal carcinoma cell line growth inhibition [PI3K]
Conditions: spheroids with HUVEC and MSC; for viability, T/C: stronger effect = lower value
In short: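 Combination activity was assessed by viability in multicellular tumor spheroids carrying HUVEC and MSC components. Agents were tested with PI3K inhibitors from a Cmax-based top dose (or 10 microM) downward in half-log increments.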

[1] = curve of first compound, second compound 0.0316 µM
[2] = curve of first compound, second compound 0.1 µM
[3] = curve of first compound, second compound 0.316 µM
[4] = curve of first compound, second compound 1 µM
[5] = second compound 0.0316 µM, first compound 0.0316 µM
[6] = second compound 0.0316 µM, first compound 0.1 µM
[7] = second compound 0.1 µM, first compound 0.0316 µM
[8] = second compound 0.1 µM, first compound 0.1 µM
[9] = second compound 0.316 µM, first compound 0.0316 µM
[10] = second compound 0.316 µM, first compound 0.1 µM
[11] = second compound 1 µM, first compound 0.0316 µM
[12] = second compound 1 µM, first compound 0.1 µM
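Further: spheroids exposed to agents for seven days before readout.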

CC(=O)c1c(C)c2cnc(Nc3ccc(N4CCNCC4)cn3)nc2n(C2CCCC2)c1=O + CC(Nc1ncnc2nc[nH]c12)c1cc2cccc(Cl)c2c(=O)n1-c1ccccc1
IC50 [1]: > 0.1 µM | IC50 [2]: > 0.1 µM | IC50 [3]: > 0.1 µM | IC50 [4]: > 0.1 µM | IC50 (curve of first compound, second compound 3.16 µM): > 0.1 µM | IC50 (curve of first compound, second compound 10 µM): > 0.1 µM | viability, T/C (second compound 0.0316 µM, first compound 0.000316 µM): 91.8% | viability, T/C (second compound 0.0316 µM, first compound 0.001 µM): 91.4% | viability, T/C (second compound 0.0316 µM, first compound 0.00316 µM): 87.8% | viability, T/C (second compound 0.0316 µM, first compound 0.01 µM): 94.2% | viability, T/C [5]: 96% | viability, T/C [6]: 102% | viability, T/C (second compound 0.1 µM, first compound 0.000316 µM): 97.4% | viability, T/C (second compound 0.1 µM, first compound 0.001 µM): 106% | viability, T/C (second compound 0.1 µM, first compound 0.00316 µM): 94.4% | viability, T/C (second compound 0.1 µM, first compound 0.01 µM): 85.8% | viability, T/C [7]: 105% | viability, T/C [8]: 112% | viability, T/C (second compound 0.316 µM, first compound 0.000316 µM): 105% | viability, T/C (second compound 0.316 µM, first compound 0.001 µM): 89.7% | viability, T/C (second compound 0.316 µM, first compound 0.00316 µM): 104% | viability, T/C (second compound 0.316 µM, first compound 0.01 µM): 97.2% | viability, T/C [9]: 104% | viability, T/C [10]: 101% | viability, T/C (second compound 1 µM, first compound 0.000316 µM): 99.9% | viability, T/C (second compound 1 µM, first compound 0.001 µM): 109% | viability, T/C (second compound 1 µM, first compound 0.00316 µM): 84.1% | viability, T/C (second compound 1 µM, first compound 0.01 µM): 95.3% | viability, T/C [11]: 107% | viability, T/C [12]: 112% | viability, T/C (second compound 3.16 µM, first compound 0.000316 µM): 99.2% | viability, T/C (second compound 3.16 µM, first compound 0.001 µM): 86.5% | viability, T/C (second compound 3.16 µM, first compound 0.00316 µM): 100% | viability, T/C (second compound 3.16 µM, first compound 0.01 µM): 97.7% | viability, T/C (second compound 3.16 µM, first compound 0.0316 µM): 105% | viability, T/C (second compound 3.16 µM, first compound 0.1 µM): 104% | viability, T/C (second compound 10 µM, first compound 0.000316 µM): 91.4% | viability, T/C (second compound 10 µM, first compound 0.001 µM): 94.8% | viability, T/C (second compound 10 µM, first compound 0.00316 µM): 89.9% | viability, T/C (second compound 10 µM, first compound 0.01 µM): 97.4% | viability, T/C (second compound 10 µM, first compound 0.0316 µM): 99.8% | viability, T/C (second compound 10 µM, first compound 0.1 µM): 86.6%

CC1(C)CCC(Nc2ncc(C(F)(F)F)c(-c3c[nH]c4c(P(C)(C)=O)c(C#N)ccc34)n2)CN1 (configuration not stated) + COc1c(OCCCN2CCOCC2)ccc2c3n(c(=NC(=O)c4cnc(N)nc4)nc12)CCN3
IC50 (curve of first compound, second compound 0.00316 µM): > 10 µM | IC50 (curve of first compound, second compound 0.01 µM): > 10 µM | IC50 [1]: > 10 µM | IC50 [2]: 7.77 µM | IC50 [3]: 5.48 µM | IC50 [4]: 1.4 µM | viability, T/C (second compound 0.00316 µM, first compound 0.0316 µM): 91.7% | viability, T/C (second compound 0.00316 µM, first compound 0.1 µM): 93.5% | viability, T/C (second compound 0.00316 µM, first compound 0.316 µM): 115% | viability, T/C (second compound 0.00316 µM, first compound 1 µM): 130% | viability, T/C (second compound 0.00316 µM, first compound 3.16 µM): 147% | viability, T/C (second compound 0.00316 µM, first compound 10 µM): 63.2% | viability, T/C (second compound 0.01 µM, first compound 0.0316 µM): 101% | viability, T/C (second compound 0.01 µM, first compound 0.1 µM): 96% | viability, T/C (second compound 0.01 µM, first compound 0.316 µM): 112% | viability, T/C (second compound 0.01 µM, first compound 1 µM): 119% | viability, T/C (second compound 0.01 µM, first compound 3.16 µM): 140% | viability, T/C (second compound 0.01 µM, first compound 10 µM): 52.2% | viability, T/C [5]: 85.3% | viability, T/C [6]: 86.7% | viability, T/C (second compound 0.0316 µM, first compound 0.316 µM): 95% | viability, T/C (second compound 0.0316 µM, first compound 1 µM): 103% | viability, T/C (second compound 0.0316 µM, first compound 3.16 µM): 125% | viability, T/C (second compound 0.0316 µM, first compound 10 µM): 56.1% | viability, T/C [7]: 79.9% | viability, T/C [8]: 85.4% | viability, T/C (second compound 0.1 µM, first compound 0.316 µM): 91.7% | viability, T/C (second compound 0.1 µM, first compound 1 µM): 82% | viability, T/C (second compound 0.1 µM, first compound 3.16 µM): 98.5% | viability, T/C (second compound 0.1 µM, first compound 10 µM): 39.4% | viability, T/C [9]: 69.1% | viability, T/C [10]: 76.8% | viability, T/C (second compound 0.316 µM, first compound 0.316 µM): 72% | viability, T/C (second compound 0.316 µM, first compound 1 µM): 78.1% | viability, T/C (second compound 0.316 µM, first compound 3.16 µM): 74.3% | viability, T/C (second compound 0.316 µM, first compound 10 µM): 23.7% | viability, T/C [11]: 57.4% | viability, T/C [12]: 50.5% | viability, T/C (second compound 1 µM, first compound 0.316 µM): 49.8% | viability, T/C (second compound 1 µM, first compound 1 µM): 54.9% | viability, T/C (second compound 1 µM, first compound 3.16 µM): 44.2% | viability, T/C (second compound 1 µM, first compound 10 µM): 9.59%

CC(Nc1ncnc2nc[nH]c12)c1cc2cccc(Cl)c2c(=O)n1-c1ccccc1 (configuration not stated)
viability, T/C (compound 0.0316 µM): 102% [middle of 8 runs] | viability, T/C (compound 0.1 µM): 96.3% [middle of 8 runs] | viability, T/C (compound 0.316 µM): 90.4% [middle of 8 runs] | viability, T/C (compound 1 µM): 102% [middle of 8 runs] | viability, T/C (compound 3.16 µM): 96.3% [middle of 8 runs] | viability, T/C (compound 10 µM): 94.9% [middle of 8 runs] | IC50 (compound alone, run of 06/13/2023): > 10 µM

Cn1nccc1Nc1nccc(-c2ccn(C(CO)c3ccc(Cl)c(F)c3)c(=O)c2)n1 (configuration not stated)
viability, T/C (compound 0.0316 µM): 104% [middle of 4 runs] | viability, T/C (compound 0.1 µM): 96.6% [middle of 4 runs] | viability, T/C (compound 0.316 µM): 102% [middle of 4 runs] | viability, T/C (compound 1 µM): 89.5% [middle of 4 runs] | viability, T/C (compound 10 µM): 82.3% [middle of 4 runs] | IC50 (curve of compound): > 10 µM
